{"source": "paper PMC10337138", "about": "(Acta Neuropathologica Communications, 2023)", "conditions_in_all_cases": "1 mM ATP; inhibitor", "key": {"[1]": {"target": "MELK (Homo sapiens, UniProt Q14680)", "sequence (Q14680 whole entry)": "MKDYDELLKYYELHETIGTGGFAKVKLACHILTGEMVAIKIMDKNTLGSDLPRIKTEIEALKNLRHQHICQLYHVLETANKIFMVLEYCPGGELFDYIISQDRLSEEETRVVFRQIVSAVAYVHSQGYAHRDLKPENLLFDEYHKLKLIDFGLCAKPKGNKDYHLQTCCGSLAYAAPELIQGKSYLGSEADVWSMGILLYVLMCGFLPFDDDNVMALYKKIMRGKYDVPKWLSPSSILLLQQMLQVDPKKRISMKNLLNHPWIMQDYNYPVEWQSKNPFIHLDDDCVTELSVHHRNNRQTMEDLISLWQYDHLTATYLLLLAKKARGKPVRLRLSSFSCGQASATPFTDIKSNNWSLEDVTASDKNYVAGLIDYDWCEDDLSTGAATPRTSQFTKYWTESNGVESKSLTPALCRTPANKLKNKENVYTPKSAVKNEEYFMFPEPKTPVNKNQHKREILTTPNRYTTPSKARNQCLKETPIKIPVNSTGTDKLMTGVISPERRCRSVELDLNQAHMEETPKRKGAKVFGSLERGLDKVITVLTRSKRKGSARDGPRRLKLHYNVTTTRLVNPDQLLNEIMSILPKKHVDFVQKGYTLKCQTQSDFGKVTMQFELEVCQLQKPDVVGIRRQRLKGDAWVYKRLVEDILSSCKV", "procedure": "(§1) Kinase selectivity panel Kinome profiling was conducted by AssayQuant Technologies (Marlboro, MA) using Sox chromophore technology and Sox-based peptide substrates developed for human kinases in a 384-well format. Compounds were tested at 1 µM in the presence of 1 mM ATP."}, "[2]": {"target": "MAP4K5/KSH1 (Homo sapiens, UniProt Q9Y4K4)", "procedure": "as §1"}, "[3]": {"target": "TNK2/ACK (Homo sapiens, UniProt Q07912)", "procedure": "as §1"}, "[4]": {"target": "ZAP70 (Homo sapiens, UniProt P43403)", "procedure": "as §1"}, "[5]": {"target": "MARK3 (Homo sapiens, UniProt P27448)", "procedure": "as §1"}, "[6]": {"target": "GSK3A (Homo sapiens, UniProt P49840)", "procedure": "as §1"}, "[7]": {"target": "LCK (Homo sapiens, UniProt P06239)", "procedure": "as §1"}, "[8]": {"target": "EPHB1 (Homo sapiens, UniProt P54762)", "procedure": "as §1"}, "[9]": {"target": "PKN1 (Homo sapiens, UniProt Q16512)", "procedure": "as §1"}, "[10]": {"target": "AXL (Homo sapiens, UniProt P30530)", "procedure": "as §1"}, "[11]": {"target": "T1, PDHK2 (Homo sapiens, UniProt Q15119)", "T1 construct": "gene PDK2", "procedure": "as §1"}, "[12]": {"target": "DAPK2 (Homo sapiens, UniProt Q9UIK4)", "procedure": "as §1"}, "[13]": {"target": "RET (Homo sapiens, UniProt P07949)", "procedure": "as §1"}, "[14]": {"target": "CRIK/CIT (Homo sapiens, UniProt O14578)", "procedure": "as §1"}, "[15]": {"target": "MAP4K4/HGK (Homo sapiens, UniProt O95819)", "procedure": "as §1"}, "[16]": {"target": "TYK2(JH1) (Homo sapiens, UniProt P29597)", "procedure": "as §1"}, "[17]": {"target": "PRKCE/PKCE (Homo sapiens, UniProt Q02156)", "procedure": "as §1"}, "[18]": {"target": "PRKACA (Homo sapiens, UniProt P17612)", "procedure": "as §1"}, "[19]": {"target": "JAK1(JH1JH2) (Homo sapiens, UniProt P23458)", "procedure": "as §1"}, "[20]": {"target": "MARK2 (Homo sapiens, UniProt Q7KZI7)", "procedure": "as §1"}, "[21]": {"target": "T2, PRKCB2/PKCB2 (Homo sapiens, UniProt P05771)", "T2 construct": "gene PRKCB", "procedure": "as §1"}, "[22]": {"target": "FLT1 (Homo sapiens, UniProt P17948)", "sequence (P17948 whole entry)": "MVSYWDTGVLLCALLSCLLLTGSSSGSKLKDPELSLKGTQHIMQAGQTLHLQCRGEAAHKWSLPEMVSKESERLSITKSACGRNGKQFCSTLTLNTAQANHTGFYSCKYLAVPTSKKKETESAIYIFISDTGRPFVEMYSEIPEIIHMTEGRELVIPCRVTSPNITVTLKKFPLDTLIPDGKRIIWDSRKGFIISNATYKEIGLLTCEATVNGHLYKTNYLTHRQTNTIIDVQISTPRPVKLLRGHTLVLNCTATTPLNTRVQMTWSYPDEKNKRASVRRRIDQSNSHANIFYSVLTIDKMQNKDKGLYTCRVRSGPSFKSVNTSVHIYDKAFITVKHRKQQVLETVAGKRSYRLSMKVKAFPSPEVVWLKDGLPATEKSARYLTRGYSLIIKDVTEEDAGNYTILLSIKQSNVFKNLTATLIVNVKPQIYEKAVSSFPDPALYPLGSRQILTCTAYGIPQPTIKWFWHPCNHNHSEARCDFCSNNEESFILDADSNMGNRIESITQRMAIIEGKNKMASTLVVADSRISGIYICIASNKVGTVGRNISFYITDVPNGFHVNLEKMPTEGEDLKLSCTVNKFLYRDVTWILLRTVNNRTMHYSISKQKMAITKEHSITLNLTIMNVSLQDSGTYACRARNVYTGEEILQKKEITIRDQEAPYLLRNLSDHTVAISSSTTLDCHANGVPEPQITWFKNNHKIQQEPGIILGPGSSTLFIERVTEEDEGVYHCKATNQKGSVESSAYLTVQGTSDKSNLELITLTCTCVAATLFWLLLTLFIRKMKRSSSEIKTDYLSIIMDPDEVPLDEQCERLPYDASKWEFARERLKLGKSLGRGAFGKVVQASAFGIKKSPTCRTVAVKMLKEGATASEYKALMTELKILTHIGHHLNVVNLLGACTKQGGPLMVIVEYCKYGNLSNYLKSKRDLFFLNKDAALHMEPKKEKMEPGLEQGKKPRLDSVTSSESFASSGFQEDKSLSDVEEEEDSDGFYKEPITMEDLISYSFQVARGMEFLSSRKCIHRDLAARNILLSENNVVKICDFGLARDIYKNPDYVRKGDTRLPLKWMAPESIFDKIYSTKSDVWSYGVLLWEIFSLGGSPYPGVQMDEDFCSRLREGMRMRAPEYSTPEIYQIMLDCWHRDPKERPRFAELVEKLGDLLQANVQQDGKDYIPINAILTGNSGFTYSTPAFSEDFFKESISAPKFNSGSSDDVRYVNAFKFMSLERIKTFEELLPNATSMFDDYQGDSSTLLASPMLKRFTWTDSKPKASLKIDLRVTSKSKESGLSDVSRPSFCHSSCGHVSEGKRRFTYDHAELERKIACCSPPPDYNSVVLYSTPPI", "procedure": "as §1"}, "[23]": {"target": "NEK1 (Homo sapiens, UniProt Q96PY6)", "sequence (Q96PY6 whole entry)": "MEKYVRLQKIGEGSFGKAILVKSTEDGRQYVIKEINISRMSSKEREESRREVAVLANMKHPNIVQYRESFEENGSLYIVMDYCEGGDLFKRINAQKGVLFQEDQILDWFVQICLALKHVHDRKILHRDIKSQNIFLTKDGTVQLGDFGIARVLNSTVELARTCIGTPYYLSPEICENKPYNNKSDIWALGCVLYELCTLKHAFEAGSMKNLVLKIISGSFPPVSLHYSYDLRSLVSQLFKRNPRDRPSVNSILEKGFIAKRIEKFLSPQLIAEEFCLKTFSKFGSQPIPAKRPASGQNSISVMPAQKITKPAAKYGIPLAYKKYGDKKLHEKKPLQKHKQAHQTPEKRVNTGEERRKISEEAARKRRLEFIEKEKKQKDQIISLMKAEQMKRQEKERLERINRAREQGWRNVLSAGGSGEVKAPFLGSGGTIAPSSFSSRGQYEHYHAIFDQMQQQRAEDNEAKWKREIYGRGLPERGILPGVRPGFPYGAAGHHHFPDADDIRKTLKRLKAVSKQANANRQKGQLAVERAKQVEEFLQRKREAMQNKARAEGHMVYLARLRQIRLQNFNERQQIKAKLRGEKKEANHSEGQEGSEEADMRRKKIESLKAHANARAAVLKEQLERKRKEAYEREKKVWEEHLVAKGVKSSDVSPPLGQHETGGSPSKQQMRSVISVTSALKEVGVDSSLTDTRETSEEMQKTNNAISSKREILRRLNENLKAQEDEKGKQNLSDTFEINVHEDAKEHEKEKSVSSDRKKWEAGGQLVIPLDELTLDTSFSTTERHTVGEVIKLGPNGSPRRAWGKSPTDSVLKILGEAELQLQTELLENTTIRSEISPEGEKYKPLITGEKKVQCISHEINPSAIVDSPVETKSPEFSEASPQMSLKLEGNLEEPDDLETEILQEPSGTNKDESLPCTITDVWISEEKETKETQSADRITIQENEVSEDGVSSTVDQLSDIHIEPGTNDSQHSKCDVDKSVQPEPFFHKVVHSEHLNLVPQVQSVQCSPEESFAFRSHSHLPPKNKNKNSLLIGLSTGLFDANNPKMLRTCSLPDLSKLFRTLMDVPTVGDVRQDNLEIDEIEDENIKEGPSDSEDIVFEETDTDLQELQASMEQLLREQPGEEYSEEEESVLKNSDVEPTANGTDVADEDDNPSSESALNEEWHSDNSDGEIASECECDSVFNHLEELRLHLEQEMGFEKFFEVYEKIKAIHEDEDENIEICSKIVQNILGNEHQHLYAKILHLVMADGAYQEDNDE", "procedure": "as §1"}, "[24]": {"target": "MAPK13/P38D (Homo sapiens, UniProt O15264)", "procedure": "as §1"}, "[25]": {"target": "FGFR2 (Homo sapiens, UniProt P21802)", "procedure": "as §1"}, "[26]": {"target": "AURKC/AURC (Homo sapiens, UniProt Q9UQB9)", "sequence (Q9UQB9 whole entry)": "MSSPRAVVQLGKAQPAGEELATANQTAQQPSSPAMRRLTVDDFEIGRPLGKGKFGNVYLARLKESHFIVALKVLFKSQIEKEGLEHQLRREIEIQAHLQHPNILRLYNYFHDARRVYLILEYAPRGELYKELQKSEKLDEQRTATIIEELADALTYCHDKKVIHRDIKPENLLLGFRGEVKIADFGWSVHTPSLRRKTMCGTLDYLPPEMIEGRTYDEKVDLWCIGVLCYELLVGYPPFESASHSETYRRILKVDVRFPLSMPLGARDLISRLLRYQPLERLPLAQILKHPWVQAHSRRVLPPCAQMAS", "procedure": "as §1"}, "[27]": {"target": "T3, PDK1 (Homo sapiens, UniProt O15530)", "T3 construct": "gene PDPK1", "T3 sequence (O15530 whole entry)": "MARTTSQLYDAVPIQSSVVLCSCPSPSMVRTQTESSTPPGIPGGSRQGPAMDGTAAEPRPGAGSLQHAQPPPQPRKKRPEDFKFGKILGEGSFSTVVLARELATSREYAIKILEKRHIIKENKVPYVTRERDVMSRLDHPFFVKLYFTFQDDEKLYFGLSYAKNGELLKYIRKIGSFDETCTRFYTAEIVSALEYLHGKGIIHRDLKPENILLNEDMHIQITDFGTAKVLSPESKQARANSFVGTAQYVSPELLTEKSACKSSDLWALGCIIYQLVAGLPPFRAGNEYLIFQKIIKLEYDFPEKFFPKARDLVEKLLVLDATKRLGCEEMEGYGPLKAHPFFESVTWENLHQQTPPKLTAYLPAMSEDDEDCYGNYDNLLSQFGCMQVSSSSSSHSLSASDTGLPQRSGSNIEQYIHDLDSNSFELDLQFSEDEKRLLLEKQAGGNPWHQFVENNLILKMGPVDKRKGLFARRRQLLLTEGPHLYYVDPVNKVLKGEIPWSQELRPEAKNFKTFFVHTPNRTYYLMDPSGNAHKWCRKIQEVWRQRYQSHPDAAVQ", "procedure": "as §1"}, "[28]": {"target": "PRKCG/PKCG (Homo sapiens, UniProt P05129)", "procedure": "as §1"}, "[29]": {"target": "RAF1 (Homo sapiens, UniProt P04049)", "sequence (P04049 whole entry)": "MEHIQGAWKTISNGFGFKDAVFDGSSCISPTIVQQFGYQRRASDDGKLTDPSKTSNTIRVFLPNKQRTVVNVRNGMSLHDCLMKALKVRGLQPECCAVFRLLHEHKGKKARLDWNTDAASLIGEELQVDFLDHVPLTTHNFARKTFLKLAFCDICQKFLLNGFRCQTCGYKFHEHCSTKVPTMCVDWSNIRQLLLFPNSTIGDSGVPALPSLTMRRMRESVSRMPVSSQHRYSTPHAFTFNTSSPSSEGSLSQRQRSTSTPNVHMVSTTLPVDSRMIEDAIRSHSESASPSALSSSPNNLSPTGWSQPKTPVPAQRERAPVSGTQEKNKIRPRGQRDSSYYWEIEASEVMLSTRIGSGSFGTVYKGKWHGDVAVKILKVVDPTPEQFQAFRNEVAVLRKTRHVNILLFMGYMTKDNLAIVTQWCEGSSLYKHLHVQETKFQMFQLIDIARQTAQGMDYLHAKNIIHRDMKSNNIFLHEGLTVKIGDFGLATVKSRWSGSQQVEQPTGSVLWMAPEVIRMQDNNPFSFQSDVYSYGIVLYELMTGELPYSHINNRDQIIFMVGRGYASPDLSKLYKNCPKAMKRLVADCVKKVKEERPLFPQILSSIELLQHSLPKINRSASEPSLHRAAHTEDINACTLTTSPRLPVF", "procedure": "as §1"}, "[30]": {"target": "STK10/LOK (Homo sapiens, UniProt O94804)", "procedure": "as §1"}, "[31]": {"target": "GRK2 (Homo sapiens, UniProt P25098)", "procedure": "as §1"}, "[32]": {"target": "PHKG2 (Homo sapiens, UniProt P15735)", "procedure": "as §1"}, "[33]": {"target": "CSNK1A1/CK1A1 (Homo sapiens, UniProt P48729)", "procedure": "as §1"}, "[34]": {"target": "SIK3 (Homo sapiens, UniProt Q9Y2K2)", "procedure": "as §1"}, "[35]": {"target": "DCLK1/DCAML1 (Homo sapiens, UniProt O15075)", "procedure": "as §1"}, "[36]": {"target": "T4, MNK1 (Homo sapiens, UniProt Q9BUB5)", "T4 construct": "gene MKNK1", "procedure": "as §1"}, "[37]": {"target": "MAP4K2/GCK (Homo sapiens, UniProt Q12851)", "procedure": "as §1"}, "[38]": {"target": "DDR1 (Homo sapiens, UniProt Q08345)", "procedure": "as §1"}}}
{"smiles": "C=CC(=O)N1CCC[C@@H](n2nc(-c3ccc(Oc4ccccc4)cc3)c3c(N)ncnc32)C1", "note": "[Ibrutinib]", "values": [{"measurement": "1 µM GBD00276 (ibrutinib), % inhibition", "setting": "[1]", "value": -0.3303, "unit": "%"}, {"measurement": "1 µM GBD00276 (ibrutinib), % inhibition", "setting": "[2]", "value": 14.55, "unit": "%"}, {"measurement": "1 µM GBD00276 (ibrutinib), % inhibition", "setting": "[3]", "value": 31.95, "unit": "%"}, {"measurement": "1 µM GBD00276 (ibrutinib), % inhibition", "setting": "[4]", "value": -0.02061, "unit": "%"}, {"measurement": "1 µM GBD00276 (ibrutinib), % inhibition", "setting": "[5]", "value": 4.514, "unit": "%"}, {"measurement": "1 µM GBD00276 (ibrutinib), % inhibition", "setting": "[6]", "value": 12.02, "unit": "%"}, {"measurement": "1 µM GBD00276 (ibrutinib), % inhibition", "setting": "[7]", "value": 75.25, "unit": "%"}, {"measurement": "1 µM GBD00276 (ibrutinib), % inhibition", "setting": "[8]", "value": -0.8801, "unit": "%"}, {"measurement": "1 µM GBD00276 (ibrutinib), % inhibition", "setting": "[9]", "value": -1.102, "unit": "%"}, {"measurement": "1 µM GBD00276 (ibrutinib), % inhibition", "setting": "[10]", "value": -6.462, "unit": "%"}, {"measurement": "1 µM GBD00276 (ibrutinib), % inhibition", "setting": "[11]", "value": 7.038, "unit": "%"}, {"measurement": "1 µM GBD00276 (ibrutinib), % inhibition", "setting": "[12]", "value": 19.22, "unit": "%"}, {"measurement": "1 µM GBD00276 (ibrutinib), % inhibition", "setting": "[13]", "value": 15.14, "unit": "%"}, {"measurement": "1 µM GBD00276 (ibrutinib), % inhibition", "setting": "[14]", "value": -0.4372, "unit": "%"}, {"measurement": "1 µM GBD00276 (ibrutinib), % inhibition", "setting": "[15]", "value": -8.478, "unit": "%"}, {"measurement": "1 µM GBD00276 (ibrutinib), % inhibition", "setting": "[16]", "value": 12.87, "unit": "%"}, {"measurement": "1 µM GBD00276 (ibrutinib), % inhibition", "setting": "[17]", "value": -10.08, "unit": "%"}, {"measurement": "1 µM GBD00276 (ibrutinib), % inhibition", "setting": "[18]", "value": -16.42, "unit": "%"}, {"measurement": "1 µM GBD00276 (ibrutinib), % inhibition", "setting": "[19]", "value": 20.73, "unit": "%"}, {"measurement": "1 µM GBD00276 (ibrutinib), % inhibition", "setting": "[20]", "value": 4.287, "unit": "%"}, {"measurement": "1 µM GBD00276 (ibrutinib), % inhibition", "setting": "[21]", "value": -15.35, "unit": "%"}, {"measurement": "1 µM GBD00276 (ibrutinib), % inhibition", "setting": "[22]", "value": 31.87, "unit": "%"}, {"measurement": "1 µM GBD00276 (ibrutinib), % inhibition", "setting": "[23]", "value": -6.252, "unit": "%"}, {"measurement": "1 µM GBD00276 (ibrutinib), % inhibition", "setting": "[24]", "value": 0.9944, "unit": "%"}, {"measurement": "1 µM GBD00276 (ibrutinib), % inhibition", "setting": "[25]", "value": 32.69, "unit": "%"}, {"measurement": "1 µM GBD00276 (ibrutinib), % inhibition", "setting": "[26]", "value": 2.291, "unit": "%"}, {"measurement": "1 µM GBD00276 (ibrutinib), % inhibition", "setting": "[27]", "value": 7.444, "unit": "%"}, {"measurement": "1 µM GBD00276 (ibrutinib), % inhibition", "setting": "[28]", "value": -20.25, "unit": "%"}, {"measurement": "1 µM GBD00276 (ibrutinib), % inhibition", "setting": "[29]", "value": -13.81, "unit": "%"}, {"measurement": "1 µM GBD00276 (ibrutinib), % inhibition", "setting": "[30]", "value": -13.28, "unit": "%"}, {"measurement": "1 µM GBD00276 (ibrutinib), % inhibition", "setting": "[31]", "value": 3.639, "unit": "%"}, {"measurement": "1 µM GBD00276 (ibrutinib), % inhibition", "setting": "[32]", "value": 1.522, "unit": "%"}, {"measurement": "1 µM GBD00276 (ibrutinib), % inhibition", "setting": "[33]", "value": 2.433, "unit": "%"}, {"measurement": "1 µM GBD00276 (ibrutinib), % inhibition", "setting": "[34]", "value": -15.95, "unit": "%"}, {"measurement": "1 µM GBD00276 (ibrutinib), % inhibition", "setting": "[35]", "value": -29.46, "unit": "%"}, {"measurement": "1 µM GBD00276 (ibrutinib), % inhibition", "setting": "[36]", "value": -4.408, "unit": "%"}, {"measurement": "1 µM GBD00276 (ibrutinib), % inhibition", "setting": "[37]", "value": 1.626, "unit": "%"}, {"measurement": "1 µM GBD00276 (ibrutinib), % inhibition", "setting": "[38]", "value": 24.25, "unit": "%"}]}
